{
  "source": "patent US20200255828A1",
  "about": "“METHODS AND COMPOSITIONS FOR ALTERING FUNCTION AND STRUCTURE OF CHROMATIN LOOPS AND/OR DOMAINS” (THE BROAD INSTITUTE, INC., priority 2017, published 2020)",
  "test_system": "HCT-116 RAD21-mAC cells",
  "experiment": "PRO-Seq nascent transcription after cohesin loss",
  "assay_type": "cell-based, human",
  "text": "Finally, Applicants sought to investigate the role of cohesin in regulating gene expression. Cohesin has been proposed to facilitate interactions between enhancers and promoters (Kagey et al., 2010; Merkenschlager and Nora, 2016). Loop domains are thought to regulate this process by preventing enhancers from forming ectopic interactions with targets that lie in a different loop domain (Lupiáñez et al., 2015; Flavahan et al., 2016). Applicants therefore characterized the effects of cohesin loss on nascent transcription by performing precision nuclear run-on sequencing (PRO-Seq) in treated and untreated HCT116 cells (Engreitz et al., 2016; Jonkers and Lis, 2015) (FIG. 7A). Applicants chose an early timepoint—6 hours after auxin treatment—with the aim of examining direct consequences, rather than indirect effects due to changes in cell state.\nTo measure changes in transcription resulting from cohesin loss, Applicants performed precision run-on sequencing (PRO-Seq) (Jonkers and Lis, 2015), a variant of global run-on sequencing (GRO-Seq), using a single biotinylated nucleotide (biotin-11-CTP) as previously described (Engreitz et al., 2016). Applicants made one modifications to the protocol: at the end of each biotin enrichment, Applicants eluted biotinylated RNAs from the streptavidin-coated magnetic beads by heating beads in 25 μl of 20 mM Tris-HCl pH 7.5, 10 mM EDTA, 2% N-lauroylsarcosine at 95° C. for 5 minutes, followed by a magnetic-bead nucleic acid purification with 20 μl of MyONE SILANE beads. During the nuclei preparation step, Applicants processed pairs of RAD21-mAC cells with and without auxin treatment in parallel. In addition, Applicants performed PRO-Seq on HCT-116 CMV-OsTIR1 cells, the parental cell line of RAD21-mAC containing the OsTIR1 gene integrated at the AAVS1 locus and no mAID tags integrated on any protein. By performing PRO-Seq on CMV-OsTIR1 cells with and without auxin treatment, Applicants could control for transcriptional effects of the auxin treatment itself on HCT-116 cells, as well as any consequences of tagging the RAD21 protein.\nFor analysis of PRO-Seq data, Applicants aligned 30-bp paired-end reads to the hg19 reference (bowtie2 v2.1.0, (Langmead and Salzberg, 2012)), removed duplicate reads (Picard picard.sourceforge.net), and discarded reads with MAPQ <30. Applicants counted reads overlapping RefSeq genes (collapsed by gene symbol to the longest isoform)—this quantification procedure includes signal both at the paused position (near the TSS) as well as in the gene body. Applicants identified genes showing significant differences in transcription with DESeq2 (Love et al., 2014), excluding genes with zero coverage in all samples and calling significance at Benjamini-Hochberg corrected p-value <0.05.\nTo determine whether there were global changes in the total amount of transcription (up or down) that would affect the normalization and analysis of these experiments, Applicants included a spike-in control in three of the four PRO-Seq replicates for each of untreated and treated RAD21-mAC and CMV-OsTIR1 cells. Specifically, Applicants added ˜500,000 Drosophila S2 cells at the beginning of the protocol. Upon sequencing of these libraries, Applicants counted the number of spike-in reads by aligning to the Drosophila genome (dme13) with bowtie2 v2.1.0.\nAssessment of changes in transcription after cohesin loss. […]",
  "data": [
    {"molecule": "O=C(O)Cc1c[nH]c2ccccc12", "note": "[auxin, indole-3-acetic acid]", "values": [
      {"measurement": "AKAP12 expression down-regulation", "setting": "upon auxin treatment", "result": 3.3, "unit": "fold"},
      {"measurement": "IER5L expression down-regulation", "setting": "upon auxin treatment", "result": 2.6, "unit": "fold"},
      {"measurement": "KITLG expression down-regulation", "setting": "upon auxin treatment", "result": 2.73, "unit": "fold"},
      {"measurement": "number of genes 2-fold downregulated with p<0.05 after auxin treatment", "setting": "vs untreated HCT-116-CMV-OsTIR1 control", "result": 43},
      {"measurement": "number of genes 1.75-fold downregulated with p<0.05 after auxin treatment", "setting": "vs untreated RAD21-mAC cells", "result": 49}
    ]}
  ]
}
